Where a SMILES comes first, the peptide text is derived from it.
How the values were obtained:
[1] = system: L. crispatus and E. coli; experiment: Therapeutic Effect Protocol: L. crispatus / E. coli co-culture, ratio after 36 hours; type: cell-based, Lactobacillus crispatus; E. coli; conditions: for Therapeutic Efficacy Results (Lactobacillus/E. coli) 0.10%: nitrogen compound 0.10 wt/vol % with 1.0 wt/vol % α methyl-D glucoside (10:1); for Therapeutic Efficacy Results (Lactobacillus/E. coli) 0.10% / Therapeutic Efficacy Results (Lactobacillus/E. coli) 0.50% / Therapeutic Efficacy Results (Lactobacillus/E. coli) 1.00%: 36 hours anaerobic co-culture, 37° C.; for Therapeutic Efficacy Results (Lactobacillus/E. coli) 0.50%: nitrogen compound 0.50 wt/vol % with 1.0 wt/vol % α methyl-D glucoside (2:1); for Therapeutic Efficacy Results (Lactobacillus/E. coli) 1.00%: nitrogen compound 1.00 wt/vol % with 1.0 wt/vol % α methyl-D glucoside (1:1); for Therapeutic effect (ratio of Lactobacillus to E. coli greater than 2) at each concentration tested / Therapeutic effect when ratio α methyl-D glucoside : nitrogen compound is less than 2:1 (1:1) / Therapeutic effect when ratio α methyl-D glucoside : nitrogen compound is at least about 2:1, but not at 1:1 / Therapeutic effect at ratio 2:1 and 10:1, but not at 1:1: with α methyl-D glucoside; for Therapeutic effect (ratio of Lactobacillus to E. coli greater than 2) at each concentration tested: nitrogen compound 1 wt/vol %, 0.5 wt/vol % and 0.1 wt/vol %; for Therapeutic effect when ratio α methyl-D glucoside : nitrogen compound is less than 2:1 (1:1): ratio 1:1; for Therapeutic effect when ratio α methyl-D glucoside : nitrogen compound is at least about 2:1, but not at 1:1: ratio at least about 2:1, not 1:1; for Therapeutic effect at ratio 2:1 and 10:1, but not at 1:1: ratios 2:1 and 10:1, not 1:1
Summary of the method: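 L. crispatus and E. coli were mixed 1,000:1 (10^5-10^6 and 100-1,000 CFU per 5 mL tube) in LAPT-g medium at pH 6.5, containing 1% α-methyl-D-glucoside plus nitrogen compound at 0.1-1% w/v, in duplicate. After 36 h anaerobic incubation at 37 °C, each species was counted by selective plating (MRS anaerobic, TSA aerobic), and the L. crispatus:E. coli ratio and final pH were recorded.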

[2] = Initial pH screening of the composition; type: physicochemical; conditions: for I pH (initial pH), 0.10%: nitrogen compound 0.10 wt/vol % with 1.0 wt/vol % α methyl-D glucoside in medium; for I pH (initial pH), 0.50%: nitrogen compound 0.50 wt/vol % with 1.0 wt/vol % α methyl-D glucoside in medium; for I pH (initial pH), 1.00%: nitrogen compound 1.00 wt/vol % with 1.0 wt/vol % α methyl-D glucoside in medium
Summary of the method: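 Compounds were added to LAPT-g medium (pH adjusted to 6.5) at a final 0.1-1.0%. Solubility was judged visually by precipitate or turbidity, and insoluble compositions got no pH measurement. Initial pH was scored Low (<5.5), High (>6.5) or Pass (5.5-6.5), and only soluble Pass compositions went on to efficacy testing.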

Structure (SMILES) | Therapeutic Efficacy Results (Lactobacillus/E. coli) 0.10% [1] | Therapeutic Efficacy Results (Lactobacillus/E. coli) 0.50% [1] | Therapeutic Efficacy Results (Lactobacillus/E. coli) 1.00% [1] | Therapeutic effect (ratio of Lactobacillus to E. coli greater than 2) at each concentration tested [1] | Therapeutic effect when ratio α methyl-D glucoside : nitrogen compound is less than 2:1 (1:1) [1] | I pH (initial pH), 0.10% [2] | I pH (initial pH), 0.50% [2] | I pH (initial pH), 1.00% [2] | Therapeutic effect when ratio α methyl-D glucoside : nitrogen compound is at least about 2:1, but not at 1:1 [1] | Therapeutic effect at ratio 2:1 and 10:1, but not at 1:1 [1]
N[C@@H](CS)C(=O)O [L-Cysteine] | >299 | 28.38 | 10.44 | provided a therapeutic effect | provided a therapeutic effect | P (a Pass initial pH corresponds to the pH being at or between 5.5-6.5) | P (a Pass initial pH corresponds to the pH being at or between 5.5-6.5) | P (a Pass initial pH corresponds to the pH being at or between 5.5-6.5) | – | –
Cl.N[C@H]1C(O)O[C@H](CO)[C@H](O)[C@@H]1O (stereo partly drawn) [D-Galactosamine HCL] | 6.72 | >1220 | 1.29 | – | – | P (a Pass initial pH corresponds to the pH being at or between 5.5-6.5) | P (a Pass initial pH corresponds to the pH being at or between 5.5-6.5) | P (a Pass initial pH corresponds to the pH being at or between 5.5-6.5) | provided a therapeutic effect | provided a therapeutic effect
CSCC[C@H](NC(=O)CN)C(=O)O [Gly-Met] | 238 | >2343.75 | 0.81 | – | – | P (a Pass initial pH corresponds to the pH being at or between 5.5-6.5) | P (a Pass initial pH corresponds to the pH being at or between 5.5-6.5) | P (a Pass initial pH corresponds to the pH being at or between 5.5-6.5) | provided a therapeutic effect | provided a therapeutic effect
NCC(=O)N[C@@H](CC(N)=O)C(=O)O [Gly-Asn] (H-Gly-Asn-OH) | 108 | >1.58E+04 | 1.3 | – | – | P (a Pass initial pH corresponds to the pH being at or between 5.5-6.5) | P (a Pass initial pH corresponds to the pH being at or between 5.5-6.5) | P (a Pass initial pH corresponds to the pH being at or between 5.5-6.5) | provided a therapeutic effect | provided a therapeutic effect
NO [Hydroxylamine] | 0.20 | – | – | – | – | H (a High initial pH corresponds to an initial pH being greater than 6.5) | H (a High initial pH corresponds to an initial pH being greater than 6.5) | H (a High initial pH corresponds to an initial pH being greater than 6.5) | – | –
C[C@@H](O)[C@H](N)C(=O)O [L-Threonine] | 0.74 | 1.13 | 0.36 | – | – | P (a Pass initial pH corresponds to the pH being at or between 5.5-6.5) | P (a Pass initial pH corresponds to the pH being at or between 5.5-6.5) | P (a Pass initial pH corresponds to the pH being at or between 5.5-6.5) | – | –
CC(C)[C@H](N)C(=O)O [L-Valine] | 1.34 | 0.38 | 1.01 | – | – | P (a Pass initial pH corresponds to the pH being at or between 5.5-6.5) | P (a Pass initial pH corresponds to the pH being at or between 5.5-6.5) | P (a Pass initial pH corresponds to the pH being at or between 5.5-6.5) | – | –
C[C@H](N)C(=O)N[C@@H](CCC(=O)O)C(=O)O [Ala-Glu] (H-Ala-Glu-OH) | 10.67 | – | – | – | – | P (a Pass initial pH corresponds to the pH being at or between 5.5-6.5) | L (A Low initial pH corresponds to an initial pH being less than 5.5) | L (A Low initial pH corresponds to an initial pH being less than 5.5) | provided a therapeutic effect | –
N[C@@H](Cc1ccc(O)cc1)C(=O)O [L-Tyrosine] | 2.72 | – | – | – | – | P (a Pass initial pH corresponds to the pH being at or between 5.5-6.5) | – | – | – | –
NCC(=O)N[C@@H](CCC(=O)O)C(=O)O [Gly-Glu] (H-Gly-Glu-OH) | 6.83 | – | – | – | – | P (a Pass initial pH corresponds to the pH being at or between 5.5-6.5) | L (A Low initial pH corresponds to an initial pH being less than 5.5) | L (A Low initial pH corresponds to an initial pH being less than 5.5) | provided a therapeutic effect | –
CSCC[C@H](N)C(=O)N[C@@H](C)C(=O)O [Met-Ala] (H-Met-Ala-OH) | 7.33 | – | – | – | – | P (a Pass initial pH corresponds to the pH being at or between 5.5-6.5) | L (A Low initial pH corresponds to an initial pH being less than 5.5) | L (A Low initial pH corresponds to an initial pH being less than 5.5) | provided a therapeutic effect | –
C[C@H](N)C(=O)N[C@@H](Cc1cnc[nH]1)C(=O)O [Ala-His] (H-Ala-His-OH) | >133 | 6.59E+02 | – | – | – | P (a Pass initial pH corresponds to the pH being at or between 5.5-6.5) | P (a Pass initial pH corresponds to the pH being at or between 5.5-6.5) | H (a High initial pH corresponds to an initial pH being greater than 6.5) | provided a therapeutic effect | provided a therapeutic effect
NC(=O)C[C@@H](N)C(=O)O [D-Asparagine] | >3410 | 6.00E+06 | 72 | provided a therapeutic effect | provided a therapeutic effect | P (a Pass initial pH corresponds to the pH being at or between 5.5-6.5) | P (a Pass initial pH corresponds to the pH being at or between 5.5-6.5) | P (a Pass initial pH corresponds to the pH being at or between 5.5-6.5) | – | –
CC(=O)N[C@H]1C(O)O[C@H](CO)[C@@H](O)[C@@H]1O (stereo partly drawn) [N-Acetyl-D-Glucosamine] | 8.33 | 211 | 7.00E+06 | provided a therapeutic effect | provided a therapeutic effect | P (a Pass initial pH corresponds to the pH being at or between 5.5-6.5) | P (a Pass initial pH corresponds to the pH being at or between 5.5-6.5) | P (a Pass initial pH corresponds to the pH being at or between 5.5-6.5) | – | –

From patent US12029748B2, “Synergistic composition for maintenance of healthy balance of microflora” (KIMBERLY-CLARK WORLDWIDE, INC., priority 2017, dated 2024)
